According to patent US10028508B2, “Use of active compound compositions” (BAYER CROPSCIENCE AKTIENGESELLSCHAFT, priority 2014, dated 2018):
Where two headings read alike, the source gives them in different places.

System: Anopheles funestus metabolic-resistant strain FUMOZ-R
Assay: Metabolic-Resistant Anopheles Test (mortality on treated tile, wood, concrete)
Type: in vivo
Conditions: for mortality at 12.5 mg/m2: Deltamethrin 12.5 mg/m2, read-out: Mortality Effect %; for mortality at 25 mg/m2: Deltamethrin 25 mg/m2, read-out: Mortality Effect %
Protocol: To produce a suitable preparation of active compound combination the active compounds deltamethrin and clothanidin were dissolved in acetone (for the control group only one active compound was dissolved in acetone). The active compound combination preparation (and the active compound preparations) were pipetted onto a glazed tile, wood and concrete and, after drying, adult mosquitoes of the species Anopheles funestus metabolic-resistant strain FUMOZ-R (Hunt et al., Med Vet Entomol. 2005 September; 19(3):271-5) are placed onto the treated tile, wood and concrete. The exposition time is 30 minutes.
1 hour, 2 hour, 4 hour, 24 hours after contact to the treated surface, the mortality proportion of the test animals in % is determined. Here, 100% means that all mosquitoes have been killed; 0% means that none of the mosquitoes has been killed. The treated tile, wood and concrete was stored under stress conditions (30° C./80% rh). Measurement with the treated tile, wood and concrete was repeated 5 weeks (Table 1), 11 weeks (Table 2) and 60 weeks (Table 3) after the treatment with the active compound combination.

[1] = 5 weeks after treatment, Concrete, 1 h after contact
[2] = 5 weeks after treatment, Concrete, 2 h after contact
[3] = 5 weeks after treatment, Concrete, 4 h after contact
[4] = 5 weeks after treatment, Concrete, 24 h after contact
[5] = 5 weeks after treatment, Tile, 1 h after contact
[6] = 5 weeks after treatment, Tile, 2 h after contact
[7] = 5 weeks after treatment, Tile, 4 h after contact
[8] = 5 weeks after treatment, Tile, 24 h after contact
[9] = 5 weeks after treatment, Wood, 1 h after contact
[10] = 5 weeks after treatment, Wood, 2 h after contact
[11] = 5 weeks after treatment, Wood, 4 h after contact
[12] = 5 weeks after treatment, Wood, 24 h after contact
[13] = 11 weeks after treatment, Concrete, 1 h after contact
[14] = 11 weeks after treatment, Concrete, 2 h after contact
[15] = 11 weeks after treatment, Concrete, 4 h after contact
[16] = 11 weeks after treatment, Concrete, 24 h after contact
[17] = 11 weeks after treatment, Tile, 1 h after contact
[18] = 11 weeks after treatment, Tile, 2 h after contact
[19] = 11 weeks after treatment, Tile, 4 h after contact
[20] = 11 weeks after treatment, Tile, 24 h after contact
[21] = 11 weeks after treatment, Wood, 1 h after contact
[22] = 11 weeks after treatment, Wood, 2 h after contact
[23] = 11 weeks after treatment, Wood, 4 h after contact
[24] = 11 weeks after treatment, Wood, 24 h after contact
[25] = 60 weeks after treatment, Concrete, 1 h after contact
[26] = 60 weeks after treatment, Concrete, 2 h after contact
[27] = 60 weeks after treatment, Concrete, 4 h after contact
[28] = 60 weeks after treatment, Concrete, 24 h after contact
[29] = 60 weeks after treatment, Tile, 1 h after contact
[30] = 60 weeks after treatment, Tile, 2 h after contact
[31] = 60 weeks after treatment, Tile, 4 h after contact
[32] = 60 weeks after treatment, Tile, 24 h after contact
[33] = 60 weeks after treatment, Wood, 1 h after contact
[34] = 60 weeks after treatment, Wood, 2 h after contact
[35] = 60 weeks after treatment, Wood, 4 h after contact
[36] = 60 weeks after treatment, Wood, 24 h after contact

CC1(C)[C@H](C(=O)O[C@H](C#N)c2cccc(Oc3ccccc3)c2)[C@@H]1C=C(Br)Br [Deltamethrin, deltamethrin]
mortality at 12.5 mg/m2 [1]: 70%
mortality at 25 mg/m2 [1]: 90%
mortality at 12.5 mg/m2 [2]: 87%
mortality at 25 mg/m2 [2]: 100%
mortality at 12.5 mg/m2 [3]: 100%
mortality at 25 mg/m2 [3]: 100%
mortality at 12.5 mg/m2 [4]: 30%
mortality at 25 mg/m2 [4]: 73%
mortality at 12.5 mg/m2 [5]: 17%
mortality at 25 mg/m2 [5]: 7%
mortality at 12.5 mg/m2 [6]: 77%
mortality at 25 mg/m2 [6]: 83%
mortality at 12.5 mg/m2 [7]: 97%
mortality at 25 mg/m2 [7]: 100%
mortality at 12.5 mg/m2 [8]: 100%
mortality at 25 mg/m2 [8]: 93%
mortality at 12.5 mg/m2 [9]: 10%
mortality at 25 mg/m2 [9]: 30%
mortality at 12.5 mg/m2 [10]: 77%
mortality at 25 mg/m2 [10]: 90%
mortality at 12.5 mg/m2 [11]: 80%
mortality at 25 mg/m2 [11]: 93%
mortality at 12.5 mg/m2 [12]: 77%
mortality at 25 mg/m2 [12]: 83%
mortality at 12.5 mg/m2 [13]: 3%
mortality at 25 mg/m2 [13]: 13%
mortality at 12.5 mg/m2 [14]: 0%
mortality at 25 mg/m2 [14]: 43%
mortality at 12.5 mg/m2 [15]: 17%
mortality at 25 mg/m2 [15]: 63%
mortality at 12.5 mg/m2 [16]: 30%
mortality at 25 mg/m2 [16]: 73%
mortality at 12.5 mg/m2 [17]: 0%
mortality at 25 mg/m2 [17]: 10%
mortality at 12.5 mg/m2 [18]: 0%
mortality at 25 mg/m2 [18]: 33%
mortality at 12.5 mg/m2 [19]: 0%
mortality at 25 mg/m2 [19]: 43%
mortality at 12.5 mg/m2 [20]: 3%
mortality at 25 mg/m2 [20]: 63%
mortality at 12.5 mg/m2 [21]: 0%
mortality at 25 mg/m2 [21]: 0%
mortality at 12.5 mg/m2 [22]: 0%
mortality at 25 mg/m2 [22]: 27%
mortality at 12.5 mg/m2 [23]: 20%
mortality at 25 mg/m2 [23]: 80%
mortality at 12.5 mg/m2 [24]: 13%
mortality at 25 mg/m2 [24]: 70%
mortality at 12.5 mg/m2 [25]: 0%
mortality at 25 mg/m2 [25]: 0%
mortality at 12.5 mg/m2 [26]: 0%
mortality at 25 mg/m2 [26]: 0%
mortality at 12.5 mg/m2 [27]: 0%
mortality at 25 mg/m2 [27]: 0%
mortality at 12.5 mg/m2 [28]: 13%
mortality at 25 mg/m2 [28]: 23%
mortality at 12.5 mg/m2 [29]: 0%
mortality at 25 mg/m2 [29]: 0%
mortality at 12.5 mg/m2 [30]: 0%
mortality at 25 mg/m2 [30]: 7%
mortality at 12.5 mg/m2 [31]: 17%
mortality at 25 mg/m2 [31]: 23%
mortality at 12.5 mg/m2 [32]: 30%
mortality at 25 mg/m2 [32]: 53%
mortality at 12.5 mg/m2 [33]: 0%
mortality at 25 mg/m2 [33]: 0%
mortality at 12.5 mg/m2 [34]: 0%
mortality at 25 mg/m2 [34]: 10%
mortality at 12.5 mg/m2 [35]: 17%
mortality at 25 mg/m2 [35]: 37%
mortality at 12.5 mg/m2 [36]: 43%
mortality at 25 mg/m2 [36]: 43%
